PubChem BioAssay (NCI)
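Compound exposure: 48 hours, 5 concentrations, 96-well plates. GI50 = concentration required for 50% inhibition of growth. TGI denotes the concentration required for complete inhibition of growth.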

Key:
Assay in all cases: inhibition of tumour cell growth, NCI panel, 48 h
[1] = test system: HCT-116 colon
[2] = test system: HOP-62 NSCLC
[3] = test system: IGROV1 ovarian
[4] = test system: OVCAR-3 ovarian
[5] = test system: SK-MEL-28 melanoma
[6] = test system: SK-MEL-5 melanoma
[7] = test system: SW-620 colon
[8] = test system: U251 CNS
[9] = test system: UACC-62 melanoma
[10] = test system: MOLT-4 leukemia

Cc1cccc2nc3c(C(=O)NCCN(C)C)cccc3cc12
TGI [1]: 6.21 µM | TGI [2]: 4.88 µM | TGI [3]: 7.11 µM | TGI [4]: 7.5 µM | TGI [5]: 3.62 µM | TGI [6]: 3.06 µM | TGI [7]: 4.49 µM | TGI [8]: 8.63 µM | TGI [9]: 3.38 µM

CNC(=O)OC(C)CN1c2ccccc2Sc2ccc(Cl)cc21 (stereo not given)
TGI [1]: > 10 µM | TGI [2]: > 10 µM | TGI [3]: > 10 µM | TGI [10]: > 10 µM | TGI [4]: > 10 µM | TGI [5]: > 10 µM | TGI [6]: > 10 µM | TGI [7]: > 10 µM | TGI [8]: > 10 µM | TGI [9]: > 10 µM

CCS(=O)(=O)Nc1ccc(Nc2c3ccccc3nc3ccccc23)c(OC)c1
TGI [1]: 6.94 µM | TGI [2]: 1.21 µM | TGI [3]: 22.4 µM | TGI [10]: 10.6 µM | TGI [4]: 6.05 µM | TGI [5]: 15.4 µM | TGI [6]: 12.9 µM | TGI [7]: 7.13 µM | TGI [8]: 2.43 µM | TGI [9]: 4.02 µM

COc1cc(C2C(C(=O)O)=C(CO)Oc3cc4c(cc32)OCO4)cc(OC)c1O (stereo not given)
TGI [1]: > 100 µM | TGI [2]: > 100 µM | TGI [3]: > 100 µM | TGI [10]: > 100 µM | TGI [4]: > 100 µM | TGI [5]: > 100 µM | TGI [6]: > 100 µM | TGI [7]: > 100 µM | TGI [8]: > 100 µM | TGI [9]: > 100 µM

CCOC(=O)CSc1nc(N)c2c(-c3ccc(OC)c(OC)c3)c3c(nc2n1)CCCC3
TGI [1]: > 100 µM | TGI [2]: > 100 µM | TGI [3]: > 100 µM | TGI [10]: > 100 µM | TGI [4]: > 100 µM | TGI [5]: > 100 µM | TGI [6]: > 100 µM | TGI [7]: > 100 µM | TGI [8]: > 100 µM | TGI [9]: > 100 µM

CC1SC(c2ccccc2)N(CCc2cccs2)C1=O (stereo not given)
GI50 [1]: 2.99 µM | TGI [1]: 12.3 µM | GI50 [2]: 11 µM | TGI [2]: 25.9 µM | GI50 [3]: 4.72 µM | TGI [3]: 74.4 µM | GI50 [10]: 2.98 µM | TGI [10]: 12.4 µM | GI50 [4]: 3.03 µM | TGI [4]: 13.3 µM | GI50 [5]: 4.96 µM | TGI [5]: 17.9 µM | GI50 [6]: 1.67 µM | TGI [6]: 3.15 µM | GI50 [7]: 4.6 µM | TGI [7]: 18.3 µM | GI50 [8]: 3.95 µM | TGI [8]: 14.5 µM | GI50 [9]: 3.42 µM | TGI [9]: 18.8 µM

COc1ccc2nc(-c3ccc(-c4noc(-c5cc(OC)c(OC)c(OC)c5)n4)cc3)[nH]c2c1
GI50 [1]: 1.9 µM | TGI [1]: 10.7 µM | GI50 [2]: 4.44 µM | TGI [2]: 16.8 µM | GI50 [3]: 26.3 µM | TGI [3]: 69.1 µM | GI50 [10]: 5.29 µM | TGI [10]: 59.1 µM | GI50 [4]: 4.25 µM | TGI [4]: 12.9 µM | GI50 [5]: 9.59 µM | TGI [5]: 27 µM | GI50 [6]: 3.25 µM | TGI [6]: 17.3 µM | GI50 [7]: 5.89 µM | TGI [7]: 56.5 µM | GI50 [8]: 1.68 µM | TGI [8]: 4.88 µM | GI50 [9]: 14 µM | TGI [9]: 33.4 µM

CCOC(=O)c1nc2ccc(Cl)cc2c2c1Cc1ccccc1-2
TGI [1]: > 100 µM | TGI [2]: > 100 µM | TGI [3]: > 100 µM | TGI [10]: > 100 µM | TGI [4]: > 100 µM | TGI [5]: > 100 µM | TGI [6]: > 100 µM | TGI [7]: > 100 µM | TGI [8]: > 100 µM | TGI [9]: > 100 µM

CC(=O)Nc1cc([As](=O)(O)O)ccc1O
TGI [1]: > 100 µM | TGI [2]: > 100 µM | TGI [3]: > 100 µM | TGI [10]: > 100 µM | TGI [4]: > 100 µM | TGI [5]: > 100 µM | TGI [6]: > 100 µM | TGI [7]: > 100 µM | TGI [8]: > 100 µM | TGI [9]: > 100 µM

CN(C)CC(=O)Nc1ccc(Cn2nnc3c2C(=O)c2nnn(Cc4ccc(NC(=O)CN(C)C)cc4)c2C3=O)cc1
GI50 [1]: 0.0843 µM | TGI [1]: 0.275 µM | GI50 [4]: 0.0318 µM | TGI [4]: 0.132 µM | GI50 [6]: 0.151 µM | TGI [6]: 0.286 µM | GI50 [8]: 0.183 µM | TGI [8]: 0.361 µM | GI50 [9]: 0.201 µM | TGI [9]: 0.432 µM

COc1ccc(/C(=C2/O[C@@H]([C@H]3COC(C)(C)O3)[C@H]3OC(C)(C)O[C@@H]23)c2cc(OC)c(OC)c(OC)c2)cc1O
GI50 [2]: 10.9 µM | TGI [2]: 34.7 µM | GI50 [3]: 45.1 µM | TGI [3]: > 100 µM | GI50 [10]: 24.2 µM | TGI [10]: > 100 µM | GI50 [4]: 4.84 µM | TGI [4]: 43.3 µM | GI50 [5]: 10.6 µM | TGI [5]: > 100 µM | GI50 [6]: 4.12 µM | TGI [6]: 15 µM | GI50 [7]: 7.28 µM | TGI [7]: > 100 µM | GI50 [8]: 5 µM | TGI [8]: 43.1 µM | GI50 [9]: 22.9 µM | TGI [9]: 57.6 µM

CN1CC[C@@]2(c3cccc(O)c3)CC(=O)/C(=C/c3ccccc3)[C@H]1C2
TGI [1]: 12.5 µM | TGI [2]: 58.7 µM | TGI [3]: 36.2 µM | TGI [10]: 6.21 µM | TGI [5]: 29 µM | TGI [6]: > 54.8 µM | TGI [7]: 10.1 µM | TGI [8]: 11.1 µM

COc1ccc2nc(N/N=C/C(C)=N/Nc3cc(C)c4cc(OC)ccc4n3)cc(C)c2c1
TGI [1]: 28.6 µM | TGI [2]: 50.5 µM | TGI [3]: 47.1 µM | TGI [10]: 42.1 µM | TGI [4]: 53.6 µM | TGI [5]: 74.5 µM | TGI [6]: 72.8 µM | TGI [7]: 43.5 µM | TGI [8]: 31.6 µM | TGI [9]: 64.6 µM
